From the supplement of paper PMC10307832

Legend:
Assay in all cases: relative viability (nuclei count vs DMSO), 5 days (fraction); higher = more cells survive
OSI-027 + Foretinib = compound: COc1cccc2cc(-c3nc([C@H]4CC[C@H](C(=O)O)CC4)n4ncnc(N)c34)[nH]c12 [OSI-027] + COc1cc2c(Oc3ccc(NC(=O)C4(C(=O)Nc5ccc(F)cc5)CC4)cc3F)ccnc2cc1OCCCN1CCOCC1 [Foretinib] (partner 0.25 µM)
Procedure, shortened: (§1)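 The day after seeding in 1536-well plates, lung cancer cell lines were treated by pin tool with a single drug, or with a fixed anchor-drug dose together with five library-drug doses (not always all listed) in √10 steps. After 5 days, a combined fix-and-stain solution (final 0.05% Triton X-100, 1% formaldehyde, 1 ug/ml Hoechst) was added. Nuclei counted on 4× images gave relative viability as treated counts over vehicle counts, reported as the median of duplicate plates.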

OSI-027 + Phenformin = compound: COc1cccc2cc(-c3nc([C@H]4CC[C@H](C(=O)O)CC4)n4ncnc(N)c34)[nH]c12 [OSI-027] + N=C(N)NC(=N)NCCc1ccccc1 [Phenformin] (partner 250 µM)
Procedure, shortened: as §1

OSI-027 + Decitabine = compound: COc1cccc2cc(-c3nc([C@H]4CC[C@H](C(=O)O)CC4)n4ncnc(N)c34)[nH]c12 [OSI-027] + Nc1ncn([C@H]2C[C@H](O)[C@@H](CO)O2)c(=O)n1 [Decitabine] (partner 2 µM)
Procedure, shortened: as §1

OSI-027 + Olaparib = compound: COc1cccc2cc(-c3nc([C@H]4CC[C@H](C(=O)O)CC4)n4ncnc(N)c34)[nH]c12 [OSI-027] + O=C(c1cc(Cc2n[nH]c(=O)c3ccccc23)ccc1F)N1CCN(C(=O)C2CC2)CC1 [Olaparib] (partner 8 µM)
Procedure, shortened: as §1

| Cell Line | relative viability (OSI-027 + Foretinib; first compound 0.01 µM) | relative viability (OSI-027 + Foretinib; first compound 0.03162 µM) | relative viability (OSI-027 + Foretinib; first compound 0.1 µM) | relative viability (OSI-027 + Foretinib; first compound 0.3162 µM) | relative viability (OSI-027 + Foretinib; first compound 1 µM) | relative viability (OSI-027 + Phenformin; first compound 0.01 µM) | relative viability (OSI-027 + Phenformin; first compound 0.03162 µM) | relative viability (OSI-027 + Phenformin; first compound 0.1 µM) | relative viability (OSI-027 + Phenformin; first compound 0.3162 µM) | relative viability (OSI-027 + Phenformin; first compound 1 µM) | relative viability (OSI-027 + Decitabine; first compound 0.01 µM) | relative viability (OSI-027 + Decitabine; first compound 0.03162 µM) | relative viability (OSI-027 + Decitabine; first compound 0.1 µM) | relative viability (OSI-027 + Decitabine; first compound 0.3162 µM) | relative viability (OSI-027 + Decitabine; first compound 1 µM) | relative viability (OSI-027 + Olaparib; first compound 0.01 µM) | relative viability (OSI-027 + Olaparib; first compound 0.03162 µM) | relative viability (OSI-027 + Olaparib; first compound 0.1 µM) | relative viability (OSI-027 + Olaparib; first compound 0.3162 µM) | relative viability (OSI-027 + Olaparib; first compound 1 µM) |
| --- | --- | --- | --- | --- | --- | --- | --- | --- | --- | --- | --- | --- | --- | --- | --- | --- | --- | --- | --- | --- |
| PC-3 [JPC-3] | 1.02 | 0.976 | 0.963 | 0.98 | 0.454 | 0.482 | 0.465 | 0.49 | 0.449 | 0.433 | 0.769 | 0.841 | 0.768 | 0.684 | 0.628 | 1.13 | 1.14 | 1.23 | 1.08 | 0.628 |
| NCI-H1648 |  |  |  |  |  |  |  |  |  |  | 0.477 | 0.51 |  | 0.445 | 0.45 | 1.06 | 0.725 |  | 0.639 | 0.397 |
| NCI-H1651 | 0.732 | 0.677 | 0.69 | 0.653 | 0.491 | 0.364 | 0.285 | 0.299 | 0.256 | 0.25 | 0.629 | 0.553 | 0.576 | 0.561 | 0.515 | 0.199 | 0.173 | 0.178 | 0.189 | 0.186 |
| NCI-H596 | 0.834 | 0.923 | 0.781 | 0.59 | 0.602 | 0.875 | 0.576 | 0.844 | 0.865 | 0.614 | 1.1 | 1.08 | 1.1 | 1.03 | 0.82 | 0.743 | 0.688 | 0.651 | 0.684 | 0.612 |
| HARA | 0.91 | 0.92 | 0.835 | 0.715 | 0.322 | 0.439 | 0.425 | 0.488 | 0.408 | 0.261 | 0.529 | 0.432 | 0.558 | 0.422 | 0.346 | 0.771 | 0.499 | 0.841 | 0.616 | 0.352 |
| NCI-H727 | 0.601 | 1.03 | 0.863 | 0.812 | 0.398 | 0.569 | 0.546 | 0.557 | 0.466 | 0.407 | 0.808 | 0.778 | 0.849 | 0.774 | 0.761 | 0.675 | 0.688 | 0.671 | 0.752 | 0.556 |
| Calu-6 | 0.989 | 0.936 | 0.837 | 0.784 | 0.593 |  |  |  |  |  |  |  |  |  |  | 0.568 | 0.621 | 0.637 | 0.64 | 0.577 |
| NCI-H1993 | 0.749 | 0.633 | 0.549 | 0.487 | 0.575 | 0.529 | 0.472 | 0.492 | 0.546 | 0.547 | 0.53 | 0.538 | 0.569 | 0.432 | 0.431 | 1.03 | 0.894 | 0.902 | 0.653 | 0.522 |
| HCC-366 | 0.98 | 1.05 | 0.978 | 0.878 | 0.748 | 0.598 | 0.649 | 0.637 | 0.659 | 0.498 | 0.345 | 0.367 | 0.381 | 0.265 | 0.228 | 0.331 | 0.386 | 0.417 | 0.386 | 0.219 |
| IA-LM | 1.21 | 0.992 | 0.729 | 0.807 | 0.136 |  |  |  |  |  |  |  |  |  |  | 0.898 | 0.776 | 0.733 | 0.485 | 0.212 |
| EPLC-272H | 0.712 | 0.498 | 0.594 | 0.41 | 0.236 | 0.309 | 0.258 | 0.3 | 0.276 | 0.211 | 0.324 | 0.321 | 0.344 | 0.298 | 0.256 | 0.714 | 0.495 | 0.661 | 0.386 | 0.298 |
| NCI-H441 | 1.09 | 0.859 | 0.842 | 0.823 | 0.538 | 0.895 | 0.879 | 0.841 | 0.55 | 0.474 | 0.266 | 0.263 | 0.261 | 0.293 | 0.259 | 0.649 | 0.58 | 0.548 | 0.494 | 0.3 |
| NCI-H1793 | 0.574 | 0.557 | 0.539 | 0.345 | 0.166 | 0.365 | 0.367 | 0.306 | 0.297 | 0.184 | 0.457 | 0.493 | 0.436 | 0.329 | 0.259 | 0.866 | 0.791 | 0.729 | 0.363 | 0.233 |
| 201T |  | 1.09 | 1.07 | 0.944 | 0.459 | 0.477 | 0.45 | 0.445 | 0.407 | 0.371 | 0.885 | 0.832 | 0.842 | 0.887 | 0.8 | 0.909 | 0.908 | 0.838 | 0.887 | 0.802 |
| NCI-H460 | 1.06 | 0.762 | 1 | 0.948 | 0.582 | 0.656 | 0.648 | 0.567 | 0.542 | 0.224 | 0.544 | 0.502 | 0.541 | 0.456 | 0.241 | 0.663 | 0.369 | 0.41 | 0.448 | 0.239 |
| NCI-H1666 | 1 | 0.942 | 0.922 | 0.795 | 0.783 | 0.548 | 0.603 | 0.556 | 0.639 | 0.578 | 0.719 | 0.7 | 0.741 | 0.624 | 0.555 | 0.777 | 0.67 | 0.744 | 0.77 | 0.71 |
| HOP-62 | 1.19 | 1.09 | 1.02 | 1.14 | 0.541 | 0.648 | 0.565 | 0.716 | 0.77 | 0.388 | 0.216 | 0.231 | 0.252 | 0.257 | 0.214 | 0.605 | 0.68 | 0.456 | 0.594 | 0.167 |
